{
  "source": "paper PMC2228077",
  "about": "“The bioavailability of oral GI147211 (GG211), a new topoisomerase I inhibitor” (British Journal of Cancer, 1997)",
  "origin": "cited, not measured here",
  "key": {"[1]": {"details": "intravenous route; cited from earlier work"}, "[2]": {"details": "dog, in vivo; cited from earlier work"}, "[3]": {"system": "xenografts of human cancers, including HT-29 and SW-48 colon, PC-3 prostate, MX-1 breast, H460 lung, SKOV3 ovarian and KB epidermoid carcinomas", "design": "method as in Emerson et al, 1993, 1995", "details": "ref Emerson et al, 1993, 1995; cited from earlier work"}, "[4]": {"design": "method as in Gerrits et al, 1996", "details": "i.v. daily x5 every 3 weeks; ref Gerrits et al, 1996; cited from earlier work"}},
  "note": "Where a name gives a salt, the structure may show the parent alone.",
  "data": [
    {"smiles": "CC[C@@]1(O)C(=O)OCc2c1cc1n(c2=O)Cc2c-1nc1cc3c(cc1c2CN1CCN(C)CC1)OCCO3", "note": "[GI147211, 7-(methylpiperazinomethylene)-10,11-ethylenedioxy-20(S)-camptothecin dihydrochloride]", "values": [
      {"measurement": "main toxicity in animal toxicology studies", "setting": "[1]", "value": "myelosuppression was the main toxicity and was dose limiting"},
      {"measurement": "absolute bioavailability", "setting": "[2]", "value": 16, "unit": "%"},
      {"measurement": "activity against xenografts of human cancers", "setting": "[3]", "value": "significant cytotoxicity"},
      {"measurement": "main toxicity", "setting": "[4]", "value": "myelosuppression"}
    ]}
  ]
}
